Test results from patent US11839661B2, “Rapid formation of supramolecular hydrogels by short peptide and bioactive small molecules” (BRANDEIS UNIVERSITY, priority 2017, dated 2023).
One block for each compound: values may come before it. Square brackets hold non-standard residues; d marks the D form. Ends that are not written are not given here. Peptide text beside a SMILES is read from it. * marks the point of attachment. Acetyl(thymin-1-yl) = Cc1cn(CC(=O)*)c(=O)[nH]c1=O; Acetyl(2-naphthyl) = O=C(Cc1ccc2ccccc2c1)*

What was measured:
MES-SA/dx5 cells [1] = experiment: CLSM of inhibition of Dox efflux pump; assay type: cell-based; details: MES-SA/dx5 cells without NP1 treatment, five hours after changing to medium without Dox
Description: Confocal Laser Scanning Microscopy (CLSM) Images of the Inhibition of Efflux Pump: To determine the potential drug efflux inhibitory effect by nucleopeptides, the drug efflux of free DOX was evaluated without or with incubation with nucleopeptide in efflux pumps overexpressing MES-SA/dx5 cells. After seeding 1.5×10^5 cells into 3.5 cm confocal dish and incubating at 37° C. for 24 h, the cells were incubated either with 10 μM free Dox or Dox with different concentration of nucleopeptide for 4 h. Then the medium was removed and the cells were washed three times with culture medium, and subsequently incubated with fresh complete medium for different time intervals (0, 2 or 5 h). At the end of incubation time, the cells were washed twice by live cell imaging buffer and stained nucleus by Hoechst 33342 for 10 minutes. After washed twice by live cell imaging, the cells were imaged immediately by Zeiss 880 microscope at the lens of 60×.

MES-SA/dx5 cells [2] = experiment: MTT assay; assay type: cell-based; details: 48 hours
Description: Cell culture and MTT assay: Cell culture was carried out with MES-SA/dx5 cells purchased from Sigma-Aldrich Corporation. These cells were cultured in Macyo's 5A medium supplemented with 10% v/v fetal bovine serum, 100 U/mL penicillin and 100 μg/mL streptomycin. The condition for cell culture was 37° C. in a humidified atmosphere of 5% CO2. The MTT assay was carried out using MES-SA/dx5 cells seeded in a 96-well plate with a density of 1*10^4 cells per-well (total medium volume of 100 μL). 24 hours post seeding, after the removal of the medium, solutions with serial of concentrations (5 concentrations) of different nucleopeptides were added to each well. Cells without the treatment of the precursors were used as the control. At designated time (24/48/72 hours), 10 μL MTT solution (5 mg/mL) was added to each well and incubated at 37° C. for another 4 h, and then 100 μL of SDS-HCl solution was added to stop the reduction reaction and dissolve the purple formazan. The absorbance of each well at 595 nm was measured by a multimode microplate reader. The cytotoxicity assay was performed three times and the average value of the three measurements was taken. All the statistical analysis used mean±SEM. The range of SEM is from 0.04 to 2.21.

[3] = Hydrogelation / gelation time by vial inverse method; assay type: physicochemical
Description: Hydrogel Preparation: Compound 1 (5.0 mg) was dissolved in 1 mL of aqueous buffer (sodium hydroxide was used to adjust the final pH to 7.4), and the hydrogels were formed after the addition of different equivalents of small molecules (initial concentration is 100 mM), the final concentration of 1 is 0.4 wt % in all hydrogels. The gelation time of 1 with different bioactive small molecules was determined by vial inverse method.

[4] = Doxorubicin release from hydrogel; assay type: physicochemical; details: hydrogel of 1 (0.4 wt %) formed with 1 equivalent pyridoxal, Dox 200 μg/mL, 37° C.
Description: To load the drug, a solution of Dox (1 mg/mL) was added during the gelling process. After the hydrogel formed by addition of pyridoxal or ATP (final concentration of 1 is 0.4 wt % and doxorubicin was 200 μg/mL). 0.25 mL of PBS (0.1 M phosphate-buffered saline (PBS, pH 7.4) or 0.1 M acetate buffer solution (pH 5.0)) was added onto the surface of the hydrogels, 0.2 mL of solution was taken out at the desired time point and 0.2 mL of PBS was added back. For the following time points, 0.2 mL of PBS was taken out and 0.2 mL of PBS was added back at each point. Using this process, the release of Dox was monitored by measuring the absorbance of Dox at wavelength of 480 nm, and its release profile calculated. The experiment was performed at 37° C. in triplicate. The results are shown in FIGS. 9A-B. As expected, the hydrogel releases the Dox according to the type of small bioactive molecules and pH.

[5] = Rheology (storage and loss moduli); assay type: physicochemical
Description: Rheology Experiments: The rheological tests were performed on TA ARES-G2 rheometer, parallel-plate geometry with an upper plate diameter of 25 mm and a gap of 0.4 mm. During the measurement, the stage temperature was maintained at 25° C. by Peltier heating/cooling system. The hydrogel was loaded into stage by spatula. For the rheology testing in Examples 1-7, a time sweep was performed at the frequency of 6.28 rad/s and the strain for 1.0%, and a frequency sweep was performed at the range of 0.1 to 200 rad/s and strain is 1.0%. For the rheology testing in Examples 8-12, a strain sweep (0.1% to 100%) was performed at the frequency of 6.28 rad/s, and a frequency sweep was performed at the range of 0.1 to 200 rad/s and strain is 1.0%.

[6] = test system: HS-5 (Human Bone Marrow Stromal) cell lines; experiment: Biocompatibility with HS-5 cell lines; assay type: cell-based; details: HS-5 cells, over 3 days, concentration range 20-500 μM
Description: The biocompatibility of peptide 1 with HS-5 (Human Bone Marrow Stromal) cell lines was investigated over 3 days. […] It is expected, therefore, that peptide 1 is also compatible with other types of physiologically normal cells.

MBP-ASC^PYD = MBP-ASC^PYD (Homo sapiens, UniProt Q9ULZ3); experiment: TEM of MBP-ASC^PYD oligomerization on co-incubation with P5P; assay type: biochemical; details: P5P 100 μM co-incubated with MBP-ASC^PYD (1 mg/mL, ~18 μM)
Sequence of MBP-ASC^PYD (Q9ULZ3 1-91 limits assumed): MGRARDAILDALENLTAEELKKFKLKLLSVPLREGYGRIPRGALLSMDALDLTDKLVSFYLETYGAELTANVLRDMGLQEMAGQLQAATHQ

[7] = Sequestration of ATP by nucleopeptide (phase transition); assay type: binding
Description: (§1) Sample Preparation and Process for Sequestering ATP by Nucleopeptide: Typically, nucleopeptide […] was dissolved in 1 mL of PBS buffer. A minimal amount of sodium hydroxide was used to adjust the final pH to 7.4 to form 5.0 wt % solution of the nucleopeptide. ATP or ADP was dissolved in PBS buffer at the concentration of 100 mM with the final pH of 7.4. To test sequestration ability of nucleopeptide, we mixed the solution of 5.0 wt % of nucleopeptide with ATP (ADP) in different molar ratio and stirred the mixture with pipettor gently. The mixture was kept at room temperature and used for different characterizations. The sequestration of ATP (or ADP) results in phase transition, from the solution to precipitates or hydrogel, which is observable by naked eyes. Such phase transitions were further characterized by TEM, CD, SLS and rheology according to the same procedure for sample preparation.

[8] = Interaction of nucleopeptide with ADP (phase transition); assay type: binding; details: PBS buffer pH 7.4
Description: as §1

[9] = 1 at 0.4 wt %, 1 equivalent folinic acid
[10] = 1 at 0.4 wt %, 1 equivalent pyridoxal
[11] = 1 at 0.4 wt %, 4 equivalents folinic acid
[12] = 1 at 0.4 wt %, 4 equivalents pyridoxal

Compound: COc1cccc2c1C(=O)c1c(O)c3c(c(O)c1C2=O)C[C@@](O)(C(=O)CO)C[C@@H]3O[C@H]1C[C@H](N)[C@H](O)[C@H](C)O1 [Dox, doxorubicin, reference compound]
cellular retention of Dox (efflux) (MES-SA/dx5 cells [1]): little Dox
cell death (MES-SA/dx5 cells [2]; Dox alone (5 mm as printed)): 46%

Compound: Cc1cn(CC(=O)N[C@H](Cc2ccccc2)C(=O)N[C@H](Cc2ccccc2)C(=O)N[C@H](CCCCN)C(=O)N[C@H](CCCCN)C(=O)N[C@H](Cc2ccccc2)C(=O)N[C@H](CCCCN)C(=O)N[C@H](CC(C)C)C(=O)N[C@H](CCCCN)C(=O)N[C@H](CC(C)C)C(=O)O)c(=O)[nH]c1=O [NP1, thyminylacetyl-ffkkfklkl] ({Acetyl(thymin-1-yl)}-[dF][dF][dK][dK][dF][dK][dL][dK][dL]-OH)
cytotoxicity (MES-SA/dx5 cells [2]; NP1 by itself): little cytotoxicity

tendency for hydrogelation (state in aqueous solution) ([3]; 1 alone, 0.4 wt %, pH 7.4): transparent viscous solution
gelation time ([3]; 1 at 0.4 wt %, 1 equivalent AMP): 11 s
gelation time [3, 9]: about 8 seconds
gelation time (sol-gel phase transition) [3, 10]: 190 s
gelation time ([3]; 1 at 0.4 wt %, 1 or 4 equivalents ATP): about 7 seconds
gelation time ([3]; 1 at 0.4 wt %, 4 equivalents AMP): 5 s
gelation time [3, 11]: ~7 s
gelation time [3, 12]: ≤ 19 s
gelation time ([3]; 1 at 0.4 wt %, four molar equivalents of P5P): 4 s
gelation time ([3]; 1 at 0.4 wt %, pH 7.4, equal molar P5P): ≤ 10 s
gelation time ([3]; 1 at 0.4 wt %, two to four molar equivalents of P5P): ≤ 10 s
release of doxorubicin from hydrogel ([4]; pH 5.0, 12 h): about 85%
release of doxorubicin from hydrogel ([4]; pH 7.4, 12 h): 50%
storage modulus [5, 9]: 64 Pa
cross point of G′ and G″ [5, 10]: 77 s
storage modulus G′ [5, 10]: 55 Pa
storage modulus [5, 11]: 78 Pa
storage modulus G′ [5, 12]: 980 Pa
storage modulus G′ ([5]; 1 at 0.4 wt %, one equivalent of P5P): 40 Pa
mechanical properties ([5]; 1 in the presence of ATP or AMP): change little
storage modulus G′ ([5]; 1 itself, 0.4 wt %, after 1 h incubation): around 6 Pa
G′ relative to hydrogel formed with 1 equivalent pyridoxal ([5]; 4 equivalents pyridoxal): 18 times
G′ relative to G′ of 1 itself ([5]; one equivalent of P5P): 8 times
biocompatibility [6]: cell-compatible
Compound: CC(C)C[C@H](NC(=O)[C@H](CCCCN)NC(=O)[C@H](CC(C)C)NC(=O)[C@H](CCCCN)NC(=O)[C@H](Cc1ccccc1)NC(=O)[C@H](CCCCN)NC(=O)[C@H](CCCCN)NC(=O)[C@H](Cc1ccccc1)NC(=O)[C@H](Cc1ccccc1)NC(=O)Cc1ccc2ccccc2c1)C(=O)O [Peptide 1] ({Acetyl(2-naphthyl)}-FFKKFKLKL-OH; C-terminus assumed)

oligomerization of MBP-ASC^PYD (MBP-ASC^PYD): modulates the oligomerization
Compound: Cc1ncc(COP(=O)(O)O)c(C=O)c1O [Peptide P5P, pyridoxal-5-phosphate]

Compound: thyminylacetyl-FF [NP11]
ability to sequester ATP [7]: unable to sequester ATP

Compound: thyminylacetyl-FFK [NP10]
ability to sequester ATP [7]: unable to sequester ATP

Compound: thyminylacetyl-FFKK [NP9]
ability to sequester ATP [7]: unable to sequester ATP

Compound: thyminylacetyl-FFKKF ({Acetyl(thymin-1-yl)}-FFKKF) [NP6]
ability to sequester ATP [7]: able to sequester ATP

Compound: thyminylacetyl-FFKKFK ({Acetyl(thymin-1-yl)}-FFKKFK) [NP8]
ability to sequester ATP [7]: unable to sequester ATP

Compound: thyminylacetyl-FFKKFKL ({Acetyl(thymin-1-yl)}-FFKKFKL) [NP4]
ability to sequester ATP [7]: able to sequester ATP

Compound: thyminylacetyl-FFKKFKLK ({Acetyl(thymin-1-yl)}-FFKKFKLK) [NP7]
ability to sequester ATP [7]: unable to sequester ATP

Compound: thyminylacetyl-FFKKFKLKL ({Acetyl(thymin-1-yl)}-FFKKFKLKL) [NP2]
phase transition in the presence of ADP [8]: remains as a transparent solution
ability to sequester ATP [7]: able to sequester ATP
phase transition after addition of ATP ([7]; PBS buffer pH 7.4): precipitates

Compound: thyminylacetyl-KKFKLKL ({Acetyl(thymin-1-yl)}-KKFKLKL) [NP12]
ability to sequester ATP [7]: unable to sequester ATP

Compound: thyminylacetyl-ffkkf [NP5]
ability to sequester ATP [7]: able to sequester ATP

Compound: thyminylacetyl-ffkkfkl [NP3]
ability to sequester ATP [7]: able to sequester ATP
